These results are taken from PMC10066322 (Scientific Reports, 2023).

In experiment [1] the test system is PARN activity in Hela cells. The experiment in a line: miR-21-5p levels in Hela cells by northern blotting (PARN inhibition in cells). It is filed as cell-based, human. Conditions: 2 days. On the procedure:
48 h after transfection/drug treatment, cells were collected for either RNA or protein analysis.
Total RNA was extracted from cell lysates using TriZol as per manufacturer’s protocol and DNAse treated. After quantification on Nanodrop, total RNA was separated on an acrylamide 7 M Urea gel. RNA was transferred to a nylon membrane (Nytran SPC, GE Healthcare) using semiwet transfer. After UV/EDC crosslinking, the blot was pre-hybridized and hybridized in PerfectHyb Plus Hybridization Buffer (Sigma Aldrich) at 42 °C. Northern probes have been previously described[11],[48]. After hybridization and washing in 2 × SSC 0.1% SDS wash buffer, blots were exposed to a cassette and imaged on a Typhoon FLA 9500 Phosphoimager. Band intensities were quantified using ImageJ and normalized to the U1 levels under each condition.

For the next experiment, the system named is PARN level in Hela cells. As to the kind of experiment: Western blot of PARN protein level in Hela cells. It is filed as cell-based, human. Particulars: 50 μM, 2 days. The text has this: The blot was blotted against anti-PARN antibody. (b) Quantification of the changes in PARN levels of western blot using GAPDH as loading controls. siPARN and drug treatments were normalized to scramble siRNA and DMSO controls, respectively. siPARN and drug treatment data were compared to scr and DMSO data, respectively. One-way ANOVA, multiple comparisons test. Average ± SD, N = 3 biological replicates, n = 1. […] (d) Quantification of miR-21-5p levels normalized to U1 RNA. One-way ANOVA, multiple comparisons test, average ± SD, N = 3 biological replicates, n = 1. […] One-way ANOVA, multiple comparisons test, average ± SD, N = 3 biological replicates, n = 2. (f) Representative northern blot showing that miR-21-5p levels decreased in TH11, TH15, and TH16 treatments. […] (g) Quantification of miR-21-5p levels normalized to U1 RNA. […] For nothern blot and RT-qPCR quantifications, Scr and DMSO controls were independently set to 1 and used as control for siPARN and drug treatments, respectively. *P < 0.05, **P < 0.005, ***P < 0.001, ****P < 0.0001, n.s. was not indicated. […]
Cells was lysed with 2× lysis buffer (2.5% SDS, 4% BME, protease inhibitor) and was separated on a 4–12% Bis–Tris NuPage gel (ThermoFisher) and transferred to protran membrane (Amer- sham). […] Blot was quantified using ImageJ and normalized to GAPDH levels (GAPDH antibody (0411) HRP) (Santa Cruz Biotechnology, sc-47724 HRP).

Another experiment relates to Hela cells. The experiment in a line: Cell death assay (cell counting, with or without doxorubicin). It is filed as cell-based, human. On the procedure: Previous work has shown that PARN inhibition leads to cell death in combination with DNA damaging agent, which has been interpreted to occur through the induction of p53[11].
Cell counting were done 2 days post-treatment. For doxorubicin (EMD Millipore, 504042) treatment, doxorubicin (1 μM) was added to cells. Cells were collected and counted at 0 h and 24 h after treatment.

Experiment [2] deals with ACK1 (activated CDC42 kinase 1). Conditions: cited from earlier work.

For `Cc1ccc(Nc2ncc3c(n2)N(C)C(=O)N(c2cc(NC(=O)c4cccc(C(F)(F)F)c4)ccc2C)C3)cn1` [GNF-7], the “PARN inhibitor in cells” value in experiment [1] (50 μM) is “Yes”. In addition, in experiment [1] (50 µM, northern blotting, DMSO control), the “miR-21-5p levels compared to the controls” value is on record as ~ 35%. Also, in the experiment with PARN level in Hela cells, the “PARN level (western blot)” value is “do not affect PARN level”. Besides, the “sensitivity of cells to doxorubicin (cell death)” value with Hela cells (Hela cells treated 2 days, then doxorubicin 1 μM for 24 h) was “increase the sensitivity”. Also, the “cell growth compared to DMSO treatment” value in the experiment with Hela cells (Hela cells, 25 μM, 2 days) was “growth defects”. For the same compound, the IC50 in experiment [2] is 0.025 µM.

As usually defined, the IC50 is the concentration needed to halve the response being measured.
